What was measured:
[1] = system: type D HBV core antigen (HBcAg) reporter cell line; assay: sgRNA lentiviral library screening, HBcAg reporter cell line (NGS reads in GFP-negative cells); type: cell-based; details: sgRNA in GFP-negative cell population, day 14 after transfection of EPIREG
Source text: (§1) In this example, the type D HBV X protein (HBx), core antigen (HBcAg), and surface antigen (HBsAg) reporter cell lines were used for library screening. First, a sgRNA cell library of type D HBV gene was constructed using a reporter cell line according to the method described in example 1. The sgRNA library was packaged into lentivirus to obtain a sgRNA lentiviral library (carrying red fluorescence), the reporter cell line was infected with the lentiviral library, and the red fluorescence was sorted to obtain the sgRNA cell library. Each cell in this sorted cell library integrated a single sgRNA in the library while the cell itself carried a reporter sequence (carrying green fluorescence). The EPIREG tool described in example 2 (the amino acid sequence of the tool was SEQ ID NO: 1194) (carrying blue fluorescence) was transfected and delivered into a cell library carrying both sgRNA and reporter sequences. Red/green/blue fluorescent triple-positive cells were sorted using a flow cytometer and cultured long-term. The EPIREG transfected into the cells could work together with the sgRNA to silence GFP in the reporter. On the day 14 after transfection, the GFP-negative cell population in the cell library was sorted, the genomic DNA of the negative cell population was extracted for NGS sequencing. The sgRNAs with higher sequencing reads in the negative cell population were compared using the untreated cell library as a control reference, so as to obtain the candidate sgRNAs that could play an editing role corresponding to each reporter, respectively (the schematic diagram of this screening scheme is shown in FIG. 6, and the analysis method is referenced to the literature DOI: 10.1186/s13059-014-0554-4). The functionally validated sgRNAs for each reporter cell line are summarized in the following table (arranged by the starting position of the target sequence of each sgRNA).

[2] = system: type D HBV surface antigen (HBsAg) reporter cell line; assay: sgRNA lentiviral library screening, HBsAg reporter cell line (NGS reads in GFP-negative cells); type: cell-based; details: sgRNA in GFP-negative cell population, day 14 after transfection of EPIREG
Source text: as §1

[3] = system: type D HBV X protein (HBx) reporter cell line; assay: sgRNA lentiviral library screening, HBx reporter cell line (NGS reads in GFP-negative cells); type: cell-based; details: sgRNA in GFP-negative cell population, day 14 after transfection of EPIREG
Source text: as §1

[4] = system: type D hepatitis B virus (GenBank: U95551); assay: Knockdown of HBV markers in HBV-infected primary hepatocytes (PHH), Example 2; type: cell-based; details: sgRNA: single 4 h treatment, RG7834 stopped on day 13
Source text: A primary hepatocyte (PHH) cell line infected with type D hepatitis B virus (GenBank: U95551) was used in this example. […] Therefore, these four sgRNAs were used to formulate the pharmaceutical composition provided in the present application and perform epigenetic editing in primary hepatocytes to validate their inhibitory effect on HBV gene expression.
Two days after primary hepatocytes were infected with HBV, lipid nanoparticles (LNPs) (LNP preparation reference: https://doi.org/10.1038/s41586-021-03534-y) were used to deliver a composition containing mRNA encoding EPIREG (SEQ ID NO: 1191) and each sgRNA (BSG29, BSG31, BSG34, BSG35) into primary hepatocytes (administration dose was 2.5 μg/ml, the mass ratio of EPIREG to sgRNA was 1:1). The culture supernatant was collected every two days after administration to detect the expression levels of HBV surface antigen (HBsAg) and core antigen (HBcAg) secreted by the cells. Cell samples were collected until 14 days after administration, DNA and RNA were extracted from the cells, and the levels of HBV mRNA and changes in the cccDNA of the HBV gene were detected. The two groups of positive controls used Myrcludex B (WuXi AppTec, C9023GE070-1/PE0723) and RG7834 (WuXi AppTec, ET25747-14-P1), respectively. Myrcludex B could inhibit HBV infection of hepatocytes, and RG7834 could inhibit the synthesis of viral proteins. RG7834 was stopped on the day 13 of the experiment to observe the rebound of viral antigen proteins. (Specific detection methods were performed according to the following kit instructions: HBsAg ELISA kit, Antu-CL 0310; HBeAg ELISA kit, Antu-CL 0312; RNeasy 96 Kit (12), QIAGEN #74182)

[5] = system: HBx reporter cell line of type B HBV; assay: sgRNA functional screening in HBx reporter cell line (293 FT, P2A-EGFP), type B HBV; type: cell-based, type B HBV (serotype adw); details: type B HBV; different time points after transfection of EPIREG + sgRNA
Source text: 293 FT was used to construct a reporter cell line for type B, type C and type D HBV surface antigen (HBsAg), core antigen (HBcAg), X protein (HBx) and polymerase (Pol), and the schematic diagram is shown in FIG. 1A. The genomic sequence containing the CpG island and regulatory elements before the protein transcription start site was retained, and the gene sequences of the self-cleaving peptide P2A and EGFP were fused after the 38th amino acid of the HBV surface antigen (HBsAg), the 129th amino acid of the core antigen (HBcAg), the 77th amino acid of the X protein (HBx), and the 177th amino acid of the polymerase (Pol), respectively. The reporter gene was integrated into the 293 FT genome using the PiggyBac transposon system, and a stably transfected cell line was constructed. The intensity of fluorescence was used to reflect the expression level of the protein, thereby quickly performing functional validation and preliminary screening of sgRNAs near the CpG island.
The screening scheme for sgRNA functional validation using the above-mentioned reporter cell line was designed as follows (FIG. 1B): after the reporter cells were plated, the composition EPIREG described in the present application (the domain of the composition was DNMT3A-hDNMT3L-xten80-ZIM3-xten80-dCas9, with an amino acid sequence as set forth in SEQ ID NO: 1194, and a nucleic acid sequence as set forth in SEQ ID NO: 1192 (CDS sequence) and 1193 (plasmid sequence)) containing different sgRNAs was delivered into the cells by transfection, and the two carried red fluorescence and blue fluorescence, respectively. Flow cytometry was used to sort red fluorescent and blue fluorescent double-positive cell populations, which were cultured for a long time. Flow cytometric analysis was performed every week to detect changes in the fluorescence intensity of the reporter cells, which could reflect changes in protein expression levels after epigenetic editing.

| Compound | Log2 FC [1] | Log2 FC [2] | Log2 FC [3] | level of viral antigen protein (HBsAg, HBeAg/HBcAg) after end of treatment [4] | editing effects in the HBx reporter cell line [5] |
| --- | --- | --- | --- | --- | --- |
| 792 (guide GGTCTGGAGCAAACATTATC; listed as DNA, chemistry not fully specified) [compound 792] | 2.103 | 1.5074 | 5.6925 | – | – |
| 467 (guide CGACCCTTCTCGGGGTCGCT; listed as DNA, chemistry not fully specified) [compound 467] | 2.0481 | 1.8988 | 2.9245 | – | – |
| 985 (guide TCTGCCGTTCCGACCGACCA; listed as DNA, chemistry not fully specified) [compound 985] | 3.1824 | 1.8695 | 6.0276 | – | – |
| COCCCOc1cc2c(cc1OC)-c1cc(=O)c(C(=O)O)cn1[C@H](C(C)C)C2 [RG7834, reference compound] | – | – | – | clear rebound (increasing) trend | – |
| 88 (guide ACATCGTATCCATGGCTGCT; listed as DNA, chemistry not fully specified) [compound 88] | 3.4446 | 1.2095 | 3.4448 | – | – |
| 601 (guide GACCAAGCCCCAGCCAGTGG; listed as DNA, chemistry not fully specified) [compound 601] | 4.6508 | 1.3073 | 7.1876 | – | – |
| 973 (guide TCGGAACGGCAGACGGAGAA; listed as DNA, chemistry not fully specified) [compound 973] | 3.9552 | 1.056 | 6.3619 | – | – |
| BSG50: sgRNA tested in the HBx reporter cell line of type B HBV (guide GATCGGTAGAGGAGACACAA; listed as DNA, chemistry not given here) | – | – | – | – | extremely high editing effects |
| 834 (guide GTCGGAACGGCAGACGGAGA; listed as DNA, chemistry not fully specified) [compound 834] | 2.7177 | 1.2666 | 4.7704 | – | – |
| 211 (guide AGTCCCAAGCGACCCCGAGA; listed as DNA, chemistry not fully specified) [compound 211] | 4.4175 | 1.5263 | 4.6655 | – | – |
| 810 (guide GTAAAGAGAGGTGCGCCCCG; listed as DNA, chemistry not fully specified) [compound 810] | 2.5258 | 1.7059 | 5.1825 | – | – |
| BSG30: sgRNA tested in the HBx reporter cell line of type B HBV (guide CCTGCTGCGAGCAAAACAAG; listed as DNA, chemistry not given here) | – | – | – | – | extremely high editing effects |
| 483 (guide CGCCCCGTGGTCGGTCGGAA; listed as DNA, chemistry not fully specified) [compound 483] | 4.8386 | 2.4519 | 6.4685 | – | – |
| 658 (guide GCAAATATACATCGTATCCA; listed as DNA, chemistry not fully specified) [compound 658] | 2.2171 | 1.8084 | 4.7952 | – | – |
| 641 (guide GATCGGCAGAGGAGCCGAAA; listed as DNA, chemistry not fully specified) [compound 641] | 5.5293 | 1.58 | 7.351 | – | – |
| 825 (guide GTCCCAAGCGACCCCGAGAA; listed as DNA, chemistry not fully specified) [compound 825] | 3.3064 | 1.0352 | 5.2457 | – | – |
| 127 (guide ACTGGCTGGGGCTTGGTCAT; listed as DNA, chemistry not fully specified) [compound 127] | 2.0792 | 1.3983 | 7.231 | – | – |
| 669 (guide GCAGATGAGAAGGCACAGAC; listed as DNA, chemistry not fully specified) [compound 669] | 3.0945 | 1.1259 | 4.1676 | – | – |
| BSG43: sgRNA tested in the HBx reporter cell line of type B HBV (guide TCCTCTACCGATCCATACTG; listed as DNA, chemistry not given here) | – | – | – | – | extremely high editing effects |
| 491 (guide CGGAACGGCAGACGGAGAAG; listed as DNA, chemistry not fully specified) [compound 491] | 4.5168 | 2.6046 | 6.0674 | – | – |
| 506 (guide CGTCCCGCGCAGGATCCAGT; listed as DNA, chemistry not fully specified) [compound 506] | 3.3238 | 1.5863 | 5.3827 | – | – |

Source: US20260097133A1, “EPIGENETIC EDITING TOOL FOR TARGETING HEPATITIS B VIRUS GENE” (priority 2023, published 2026)
